Assay results published in ChEMBL document CHEMBL5463722, “Data for DCP probe BI-5524” (2023).
Blank lines part the entries; values can stand above or below the molecule they belong to. The source made the active and inactive calls. No cut-off for these calls is given here.

Tests used:
[1] = target: 5-hydroxytryptamine receptor 1B (Homo sapiens) (UniProt P28222); assay: 5-HT1B Eurofins-Cerep binding assay; design: ligand concentration 1 nM; details: Compound concentration 10.0 uM
[2] = target: Kappa-type opioid receptor (Homo sapiens) (UniProt P41145); assay: kappa (KOP) Eurofins-Cerep binding assay; details: Compound concentration 10.0 uM
[3] = target: Cannabinoid receptor 1 (Homo sapiens) (UniProt P21554); assay: CB1 Eurofins-Cerep binding assay; details: Compound concentration 10.0 uM
[4] = target: Alpha-1A adrenergic receptor (Homo sapiens) (UniProt P35348); assay: Agonist activity in the Eurofins Cerep SafetyScreen44 (BI) against ALPHA1AH_ANTAG by Scintillation counting (Cerep_2338); details: Compound concentration 10.0 uM
[5] = target: Androgen receptor (Homo sapiens) (UniProt P10275); details: Compound concentration 10.0 uM
Description: Activity against ANDROGEN/H in the Eurofins Cerep SafetyScreen44 (BI) by Radioactive Assay (Cerep_933)

[6] = target: Angiotensin-converting enzyme (Homo sapiens) (UniProt P12821); assay: Activity against ACE(HU_AMTCH400) in the Eurofins Cerep SafetyScreen44 (BI) by Photometry (Cerep_3441); details: Compound concentration 10.0 uM
[7] = target: Substance-K receptor (Homo sapiens) (UniProt P21452); assay: Activity against NK2/H in the Eurofins SafetyScreen44 (BI) by Radioactive Assay (Old_Cerep_25); details: Compound concentration 10.0 uM
[8] = target: D(4) dopamine receptor (Homo sapiens) (UniProt P21917); assay: D4.4 Eurofins-Cerep binding assay; details: Compound concentration 10.0 uM
[9] = target: L-type calcium channel (Cav1.2, alpha-1C), CA+/VERSI/R (Rattus norvegicus, UniProt P22002); assay: Inhibitor of CA+/VERSI/R in the Eurofins SafetyScreen44 (BI) by Radioactive Assay (Old_Cerep_11); design: scale not given: the % may be the effect or the level left; details: compound concentration 10 uM, read-out: % Ctrl
[10] = target: Type-2 angiotensin II receptor (Homo sapiens) (UniProt P50052); assay: Activity against AT2/H in the Eurofins SafetyScreen44 (BI) by Radioactive Assay (Old_Cerep_7)
[11] = target: Small conductance calcium-activated potassium channel protein 1 (Rattus norvegicus) (UniProt P70606); assay: Inhibitor of K+/CA+/R in the Eurofins SafetyScreen44 (BI) by Radioactive Assay (Old_Cerep_23); details: Compound concentration 10.0 uM
[12] = target: Gastrin/cholecystokinin type B receptor (Homo sapiens) (UniProt P32239); assay: Activity against CCKB/H in the Eurofins SafetyScreen44 (BI) by Radioactive Assay (Old_Cerep_13); details: Compound concentration 10.0 uM
[13] = target: 5-hydroxytryptamine receptor 7 (Homo sapiens) (UniProt P34969); assay: 5-HT7 Eurofins-Cerep binding assay; design: ligand concentration 4 nM; details: Compound concentration 10.0 uM
[14] = target: Melatonin receptor type 1A (Homo sapiens) (UniProt P48039); assay: MT1 (ML1A) Eurofins-Cerep binding assay; design: ligand concentration 0.01 nM; details: Compound concentration 10.0 uM
[15] = target: P2Y purinoceptor 1 (Rattus norvegicus) (UniProt P49651); assay: Activity against P2Y/RA in the Eurofins SafetyScreen44 (BI) by Radioactive Assay (Old_Cerep_30); details: Compound concentration 10.0 uM
[16] = target: 5-hydroxytryptamine receptor 5A (Homo sapiens) (UniProt P47898); assay: Activity against 5HT5A/H in the Eurofins SafetyScreen44 (BI) by Radioactive Assay (Old_Cerep_2); details: Compound concentration 10.0 uM
[17] = target: Sodium-dependent serotonin transporter (Homo sapiens) (UniProt P31645); assay: Activity against 5HTTRANS/H in the Eurofins SafetyScreen44 (BI) by Radioactive Assay (Old_Cerep_4); details: Compound concentration 10.0 uM
[18] = target: D(1B) dopamine receptor (Homo sapiens) (UniProt P21918); assay: Activity against D5/H in the Eurofins SafetyScreen44 (BI) by Radioactive Assay (Old_Cerep_17); details: Compound concentration 10.0 uM
[19] = target: Pituitary adenylate cyclase-activating polypeptide type I receptor (Homo sapiens) (UniProt P41586); assay: Activity against PACAP/HU in the Eurofins SafetyScreen44 (BI) by Radioactive Assay (Old_Cerep_31); details: Compound concentration 10.0 uM
[20] = target: Muscarinic acetylcholine receptor M5 (Homo sapiens) (UniProt P08912); assay: M5 Eurofins-Cerep binding assay; details: Compound concentration 10.0 uM
[21] = target: Tumor necrosis factor receptor superfamily member 1A (Homo sapiens) (UniProt P19438); assay: TNF-alpha Eurofins-Cerep binding assay; details: Compound concentration 10.0 uM
[22] = target: Elastase, neutrophil expressed (Cricetulus griseus, UniProt A0A3L7HHY4); assay: ELANE inhibitor assay (hamster)
[23] = target: Bombesin receptor (Rattus norvegicus) (UniProt P52500+P24053+Q8K418); assay: Activity against BOMBESIN/NS in the Eurofins SafetyScreen44 (BI) by Radioactive Assay (Old_Cerep_9); format: protein assay
Homo sapiens = species: Homo sapiens; assay: sigma (non-selective) Eurofins-Cerep binding assay; format: protein assay; details: Compound concentration 10.0 uM
[24] = target: C-C chemokine receptor type 1 (Homo sapiens) (UniProt P32246); assay: Activity against CCR1/H in the Eurofins SafetyScreen44 (BI) (Old_Cerep_14); details: Compound concentration 10.0 uM
[25] = target: Prostaglandin E2 receptor EP2 subtype (Homo sapiens) (UniProt P43116); assay: Agonist activity in the Eurofins SafetyScreen44 (BI) against EP2(H) by Scintillation counting (Old_Cerep_18); details: Compound concentration 10.0 uM
Myeloblastin = Myeloblastin (Homo sapiens, UniProt P24158); assay: PRTN3 inhibition assay
[26] = target: 5-hydroxytryptamine receptor 2C (Homo sapiens) (UniProt P28335); assay: Activity against 5HT2C/H in the Eurofins SafetyScreen44 (BI) (Cerep_1003); details: Compound concentration 10.0 uM
[27] = target: GABA-A receptor; anion channel (Rattus norvegicus) (UniProt O09028+P15431+P18506+P18508+P19969+P20236+P23574+P23576+P28471+P28473+P30191+P62813+P63079+P63138+Q91ZM7+Q9ES14); assay: Activity against BZD/PERIPH/R in the Eurofins SafetyScreen44 (BI) by Radioactive Assay (Old_Cerep_10); format: protein-complex assay
[28] = target: Galanin receptor type 2 (Homo sapiens) (UniProt O43603); assay: Inhibitor of GAL2/H in the Eurofins SafetyScreen44 (BI) by Radioactive Assay (Old_Cerep_22); details: Compound concentration 10.0 uM
[29] = target: Adenosine receptor A3 (Homo sapiens) (UniProt P0DMS8); assay: A3 Eurofins-Cerep binding assay; design: ligand concentration 0.15 nM
[30] = target: C-X-C chemokine receptor type 2 (Homo sapiens) (UniProt P25025); assay: CXCR2 (IL-8B) Eurofins-Cerep binding assay; details: Compound concentration 10.0 uM
[31] = target: Galanin receptor type 1 (Homo sapiens) (UniProt P47211); assay: Activity against GAL1/H in the Eurofins SafetyScreen44 (BI) by Radioactive Assay (Old_Cerep_21); details: Compound concentration 10.0 uM
[32] = target: Neuropeptide Y receptor type 2 (Homo sapiens) (UniProt P49146); assay: Y2 Eurofins-Cerep binding assay; design: ligand concentration 0.015 nM; details: Compound concentration 10.0 uM
[33] = target: Calcitonin-gene-related peptide receptor, CALCRL/RAMP1 (Homo sapiens) (UniProt O60894+Q16602); assay: Agonist activity in the Eurofins SafetyScreen44 (BI) against CGRP/H by Scintillation counting (Old_Cerep_15); format: protein-complex assay
[34] = target: Adrenergic receptor alpha-1 (Rattus norvegicus) (UniProt P15823+P23944+P43140); assay: Inhibitor of ALPHA1/NS/R in the Eurofins SafetyScreen44 (BI) by Radioactive Assay (Old_Cerep_5); format: protein assay

Chain of Adenosine receptor A3 (Homo sapiens) (P0DMS8 whole entry): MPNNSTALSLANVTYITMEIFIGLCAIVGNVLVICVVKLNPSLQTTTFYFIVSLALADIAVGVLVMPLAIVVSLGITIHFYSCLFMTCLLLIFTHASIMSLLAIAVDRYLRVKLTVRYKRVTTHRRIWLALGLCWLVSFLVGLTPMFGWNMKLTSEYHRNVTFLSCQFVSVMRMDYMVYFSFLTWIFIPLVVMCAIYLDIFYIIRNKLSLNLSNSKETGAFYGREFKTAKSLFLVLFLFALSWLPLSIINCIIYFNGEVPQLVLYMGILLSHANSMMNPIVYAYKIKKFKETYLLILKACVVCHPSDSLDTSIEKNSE
Chain of Bombesin receptor (Rattus norvegicus) (P24053 whole entry, looked up): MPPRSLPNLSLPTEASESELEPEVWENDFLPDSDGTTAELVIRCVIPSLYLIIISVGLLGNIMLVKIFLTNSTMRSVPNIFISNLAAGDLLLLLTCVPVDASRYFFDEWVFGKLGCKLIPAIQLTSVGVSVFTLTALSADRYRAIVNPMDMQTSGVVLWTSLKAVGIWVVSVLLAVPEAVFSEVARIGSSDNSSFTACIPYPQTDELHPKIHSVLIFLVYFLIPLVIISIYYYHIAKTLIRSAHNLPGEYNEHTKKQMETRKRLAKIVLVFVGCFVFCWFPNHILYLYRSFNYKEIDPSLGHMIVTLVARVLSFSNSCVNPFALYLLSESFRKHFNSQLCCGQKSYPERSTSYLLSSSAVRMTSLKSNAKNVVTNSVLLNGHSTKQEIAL
Chain of Bombesin receptor (Rattus norvegicus) (P52500 whole entry, looked up): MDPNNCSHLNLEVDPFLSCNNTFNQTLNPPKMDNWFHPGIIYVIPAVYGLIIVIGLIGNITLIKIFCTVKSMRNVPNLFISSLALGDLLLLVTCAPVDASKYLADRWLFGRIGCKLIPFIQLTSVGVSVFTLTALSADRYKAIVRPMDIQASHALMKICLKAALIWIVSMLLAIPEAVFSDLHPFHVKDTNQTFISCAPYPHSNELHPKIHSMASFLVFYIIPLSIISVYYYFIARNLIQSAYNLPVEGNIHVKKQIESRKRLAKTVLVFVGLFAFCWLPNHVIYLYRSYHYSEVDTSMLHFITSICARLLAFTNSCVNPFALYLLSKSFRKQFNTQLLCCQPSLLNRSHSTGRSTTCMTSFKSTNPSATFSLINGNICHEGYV
Chain of Bombesin receptor (Rattus norvegicus) (Q8K418 whole entry, looked up): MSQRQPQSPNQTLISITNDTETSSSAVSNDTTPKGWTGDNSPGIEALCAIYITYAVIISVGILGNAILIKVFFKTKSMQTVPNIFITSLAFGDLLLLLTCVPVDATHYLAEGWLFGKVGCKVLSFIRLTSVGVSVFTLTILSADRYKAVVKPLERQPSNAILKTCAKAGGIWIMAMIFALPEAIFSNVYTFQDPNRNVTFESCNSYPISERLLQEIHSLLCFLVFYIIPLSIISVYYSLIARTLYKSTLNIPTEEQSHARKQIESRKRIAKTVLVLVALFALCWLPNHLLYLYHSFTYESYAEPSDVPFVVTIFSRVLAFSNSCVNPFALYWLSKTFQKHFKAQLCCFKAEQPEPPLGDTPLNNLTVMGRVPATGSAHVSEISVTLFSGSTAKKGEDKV
Chain of Type-2 angiotensin II receptor (Homo sapiens) (P50052 whole entry): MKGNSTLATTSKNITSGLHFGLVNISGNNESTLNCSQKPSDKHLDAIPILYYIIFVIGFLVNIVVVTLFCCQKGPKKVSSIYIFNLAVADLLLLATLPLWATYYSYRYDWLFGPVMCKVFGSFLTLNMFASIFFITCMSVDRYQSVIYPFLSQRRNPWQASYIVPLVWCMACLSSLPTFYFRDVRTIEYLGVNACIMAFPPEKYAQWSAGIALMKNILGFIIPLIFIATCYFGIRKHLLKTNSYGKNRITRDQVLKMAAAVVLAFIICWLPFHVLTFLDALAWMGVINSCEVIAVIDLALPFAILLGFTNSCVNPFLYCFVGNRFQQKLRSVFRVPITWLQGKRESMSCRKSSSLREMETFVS
Chain of D(4) dopamine receptor (Homo sapiens) (P21917 whole entry): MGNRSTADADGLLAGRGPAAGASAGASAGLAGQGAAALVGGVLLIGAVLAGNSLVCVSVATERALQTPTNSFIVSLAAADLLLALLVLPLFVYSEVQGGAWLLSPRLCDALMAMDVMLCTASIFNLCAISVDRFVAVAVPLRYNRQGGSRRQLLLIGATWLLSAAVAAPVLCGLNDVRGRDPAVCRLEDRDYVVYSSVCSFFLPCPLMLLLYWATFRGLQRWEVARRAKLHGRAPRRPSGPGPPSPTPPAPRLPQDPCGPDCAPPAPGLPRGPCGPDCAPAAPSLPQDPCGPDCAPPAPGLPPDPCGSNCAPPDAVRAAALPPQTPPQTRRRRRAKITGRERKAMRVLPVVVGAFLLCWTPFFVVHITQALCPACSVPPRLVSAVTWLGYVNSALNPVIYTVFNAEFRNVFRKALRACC
Chain of C-C chemokine receptor type 1 (Homo sapiens) (P32246 whole entry): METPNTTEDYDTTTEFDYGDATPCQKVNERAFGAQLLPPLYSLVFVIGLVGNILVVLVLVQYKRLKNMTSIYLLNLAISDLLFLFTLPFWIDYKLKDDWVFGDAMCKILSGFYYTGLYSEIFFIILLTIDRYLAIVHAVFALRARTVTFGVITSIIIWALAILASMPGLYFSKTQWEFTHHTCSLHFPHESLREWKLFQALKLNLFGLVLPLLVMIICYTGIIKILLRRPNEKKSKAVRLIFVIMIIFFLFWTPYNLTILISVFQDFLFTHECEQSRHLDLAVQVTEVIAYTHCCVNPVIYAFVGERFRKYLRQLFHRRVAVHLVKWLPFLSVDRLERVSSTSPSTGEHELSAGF
Chain of 5-hydroxytryptamine receptor 7 (Homo sapiens) (P34969 whole entry): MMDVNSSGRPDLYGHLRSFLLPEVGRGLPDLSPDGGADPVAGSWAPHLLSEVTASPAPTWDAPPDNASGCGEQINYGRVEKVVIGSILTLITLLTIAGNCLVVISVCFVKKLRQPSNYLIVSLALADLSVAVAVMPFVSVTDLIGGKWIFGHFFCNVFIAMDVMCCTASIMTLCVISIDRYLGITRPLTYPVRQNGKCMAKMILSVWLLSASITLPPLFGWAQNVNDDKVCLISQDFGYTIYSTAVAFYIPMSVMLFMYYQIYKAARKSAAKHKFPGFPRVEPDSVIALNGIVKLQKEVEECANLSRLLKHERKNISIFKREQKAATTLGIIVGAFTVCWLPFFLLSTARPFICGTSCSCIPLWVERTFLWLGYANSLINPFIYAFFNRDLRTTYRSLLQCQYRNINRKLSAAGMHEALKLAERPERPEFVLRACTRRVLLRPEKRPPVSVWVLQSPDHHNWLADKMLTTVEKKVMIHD
Chain of Kappa-type opioid receptor (Homo sapiens) (P41145 whole entry): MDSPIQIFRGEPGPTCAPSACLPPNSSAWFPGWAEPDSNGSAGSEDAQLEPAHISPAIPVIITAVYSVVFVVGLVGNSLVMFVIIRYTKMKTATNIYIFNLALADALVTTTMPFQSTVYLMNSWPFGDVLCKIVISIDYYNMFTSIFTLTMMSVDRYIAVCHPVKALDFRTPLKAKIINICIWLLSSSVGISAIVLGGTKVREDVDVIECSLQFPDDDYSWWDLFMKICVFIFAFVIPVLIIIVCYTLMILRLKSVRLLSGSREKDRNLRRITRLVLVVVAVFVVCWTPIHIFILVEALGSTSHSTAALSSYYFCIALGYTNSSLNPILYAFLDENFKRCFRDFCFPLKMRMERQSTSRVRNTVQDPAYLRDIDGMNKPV
Chain of Myeloblastin (P24158 whole entry): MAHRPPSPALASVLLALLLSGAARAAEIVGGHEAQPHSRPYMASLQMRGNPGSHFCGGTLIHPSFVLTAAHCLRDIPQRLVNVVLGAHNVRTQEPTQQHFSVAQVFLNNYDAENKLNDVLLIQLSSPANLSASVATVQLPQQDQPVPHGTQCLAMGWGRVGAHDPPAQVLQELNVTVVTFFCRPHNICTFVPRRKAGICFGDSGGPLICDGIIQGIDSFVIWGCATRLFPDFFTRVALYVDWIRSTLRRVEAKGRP
Chain of Androgen receptor (Homo sapiens) (P10275 whole entry): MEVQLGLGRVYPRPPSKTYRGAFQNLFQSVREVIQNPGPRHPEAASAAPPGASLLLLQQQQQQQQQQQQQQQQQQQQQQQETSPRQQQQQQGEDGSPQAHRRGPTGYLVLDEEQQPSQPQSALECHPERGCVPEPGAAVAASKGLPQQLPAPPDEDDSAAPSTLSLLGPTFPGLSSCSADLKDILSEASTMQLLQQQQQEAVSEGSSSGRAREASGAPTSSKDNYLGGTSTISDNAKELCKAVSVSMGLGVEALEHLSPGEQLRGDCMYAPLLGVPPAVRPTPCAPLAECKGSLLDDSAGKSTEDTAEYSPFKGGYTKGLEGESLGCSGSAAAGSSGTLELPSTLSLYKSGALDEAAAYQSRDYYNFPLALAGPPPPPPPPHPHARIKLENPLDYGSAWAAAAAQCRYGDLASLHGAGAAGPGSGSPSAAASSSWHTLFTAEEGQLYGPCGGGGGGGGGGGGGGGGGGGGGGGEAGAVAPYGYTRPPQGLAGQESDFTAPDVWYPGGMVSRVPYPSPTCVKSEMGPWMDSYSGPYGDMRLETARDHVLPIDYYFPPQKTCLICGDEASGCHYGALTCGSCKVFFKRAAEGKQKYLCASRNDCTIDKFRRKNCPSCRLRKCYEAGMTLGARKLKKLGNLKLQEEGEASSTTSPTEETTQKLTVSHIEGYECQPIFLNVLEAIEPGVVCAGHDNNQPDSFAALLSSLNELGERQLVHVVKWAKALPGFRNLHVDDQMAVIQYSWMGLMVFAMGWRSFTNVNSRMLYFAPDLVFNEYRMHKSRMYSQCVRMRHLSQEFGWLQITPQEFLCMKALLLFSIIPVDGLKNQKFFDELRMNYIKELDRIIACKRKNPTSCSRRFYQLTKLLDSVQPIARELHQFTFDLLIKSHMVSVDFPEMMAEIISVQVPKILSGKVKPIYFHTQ
Chain of Elastase, neutrophil expressed (A0A3L7HHY4 whole entry): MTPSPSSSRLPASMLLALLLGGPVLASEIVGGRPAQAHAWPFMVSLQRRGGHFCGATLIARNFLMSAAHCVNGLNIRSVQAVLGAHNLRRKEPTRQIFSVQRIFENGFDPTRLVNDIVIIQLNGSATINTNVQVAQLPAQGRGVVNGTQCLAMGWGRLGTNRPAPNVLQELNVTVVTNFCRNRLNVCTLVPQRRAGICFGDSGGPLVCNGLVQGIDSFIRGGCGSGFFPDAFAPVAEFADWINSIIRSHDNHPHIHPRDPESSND

- residual activity [1]: 86%
- residual activity [2]: 94%
- residual activity [3]: 88%
- residual activity [5]: 101%
Compound: CC(C)(O)CNC(=O)N1C(=O)N(c2cccc(C(F)(F)F)c2)C2=C(C(=O)CC2)[C@@H]1c1ccc(C#N)cc1
- residual activity [4]: 102%
- residual activity [6]: 98%

- residual activity [8]: 98%
- residual activity [13]: 102%
- residual activity [14]: 105%
- residual activity [20]: 92%
- IC50 [22]: 4 nM (active)
- residual activity (Homo sapiens): 72%
- IC50 (Myeloblastin): 367 nM (not active)
- residual activity ([29]; Compound concentration 10.0 uM): 92%
- residual activity ([29]; Compound concentration 30.0 uM): 80%
- residual activity [30]: 105%
- residual activity [32]: 113%
Compound: CC(C)(O)CNC(=O)N1C(=O)N(c2cccc(C(F)(F)F)c2)C2=C(C(=O)CC2)[C@H]1c1ccc(C#N)cc1
- residual activity [7]: 103%
- activity at 10 µM [9]: 102% (not active)
- residual activity ([10]; Compound concentration 10.0 uM): 92%
- residual activity ([10]; Compound concentration 30.0 uM): 114%
- residual activity [11]: 97%
- residual activity [12]: 106%
- residual activity [15]: 88%
- residual activity [16]: 98%
- residual activity [17]: 108%
- residual activity [18]: 103%
- residual activity [19]: 122%
- residual activity [21]: 115%
- residual activity ([23]; Compound concentration 10.0 uM): 129%
- residual activity ([23]; Compound concentration 30.0 uM): 118%
- residual activity [24]: 89%
- residual activity [25]: 93%
- residual activity [26]: 94%
- residual activity ([27]; Compound concentration 10.0 uM): 100%
- residual activity ([27]; Compound concentration 30.0 uM): 93%
- residual activity [28]: 114%
- residual activity [31]: 121%
- residual activity ([33]; Compound concentration 10.0 uM): 108%
- residual activity ([33]; Compound concentration 30.0 uM): 113%
- residual activity ([34]; Compound concentration 10.0 uM): 97%
- residual activity ([34]; Compound concentration 30.0 uM): 103%
